As usually defined, the IC50 is the concentration that inhibits the measured activity by half.

Calls of active or inactive are those of the source. No rule for the calls is given here.

The test has as its system 697B cells, BCR-induced NF-kB luciferase reporter luminescence. As to the kind of experiment: B-cell receptor NF-kB reporter inhibition – 697B cells, luciferase luminescence, dose response (AID 489023).

On to `COc1ccc(C2=NCc3nnc(C)n3-c3ccc(Cl)cc32)cc1Cl`, for which the IC50 is 43.6 µM (inactive).

Regarding `CCn1c(=O)cc(OCC(=O)NCc2ccc(C)o2)c2ccccc21`, the IC50 is > 80 µM (inactive).

In the case of `COc1ccc(OC)c(C2CC(=O)Nc3cc(OC)c(OC)c(OC)c32)c1` (configuration not stated), the IC50 was > 80 µM (inactive).

For `CCOc1ccc(-c2nc(CSCC(=O)NCc3ccco3)c(C)o2)cc1`, the IC50 is 0.32 µM.

With `CCCCn1c2c(c(=N)c3ccccc31)CCC2`, the IC50 is > 80 µM (inactive).

In the case of `COc1ccc(-c2noc(N3CCC(C(=O)Nc4ccc(F)cc4F)CC3)n2)cc1`, the IC50 is > 80 µM (inactive).

With `NC(=O)C1CCN(C(=O)COc2ccc3ccccc3c2Br)CC1`, the IC50 was 39.4 µM (inactive).

Regarding `CN1C(=O)c2cccc3c(S(=O)(=O)Nc4ccccc4F)ccc1c23`, the IC50 was 57.4 µM (inactive).

Regarding `NNC(=O)COc1ccc(-c2nccc(-c3ccc(F)cc3)n2)cc1`, the IC50 was 4.92 µM.

As to `CCOC(=O)N1CCN(c2ncnc3c2[nH]c2ccc(OC)cc23)CC1`, the IC50 is 60 µM (inactive).

On to `Cn1c(=O)cc(OCCCC(=O)N2CCCCC2)c2ccccc21`, for which the IC50 was > 80 µM (inactive).

In the case of `COc1ccc(NC(=S)NCc2ccccc2)c(OC)c1`, the IC50 was > 80 µM (inactive).

In the case of `CCN1C(=O)c2cccc3c(NC(=O)c4cccc(N5C(=O)CCC5=O)c4)ccc1c23`, the IC50 was > 80 µM (inactive).

On to `CCOc1ccc(-c2cc(CCCC(=O)NCCCOC)no2)cc1`, for which the IC50 was > 80 µM (inactive).

As for `COc1ccc(NC(=O)c2cc(-c3ccccn3)nc3ccccc23)cc1S(=O)(=O)N(C)C`, the 50% inhibitory concentration (IC50) was 7.8 µM.

In the case of `COc1ccc(C(=O)Nc2ccc(OC)c([N+](=O)[O-])c2)cc1Br`, the IC50 was > 80 µM (inactive).

As to `O=C(O)CCSc1ncnc2sc(-c3ccccc3)cc12`, the IC50 was 2.29 µM.

Turning to `O=C(CCCN1C(=O)/C(=C/c2ccccc2Cl)SC1=S)Nc1cccnc1`, the IC50 is 1.75 µM.

For `CCOc1ccc(-n2c(SCC(=O)Nc3ccc4c(c3)OCCO4)nc3c(c2=O)SCC3)cc1`, the IC50 is 11.7 µM.

Consider `CCC(C)[C@H](N)c1nnc(SCC(=O)c2ccc(Cl)cc2)o1` (some centres not stated), for which the IC50 is > 80 µM (inactive).

Turning to `C[C@H]1CCC/C=C/C2C[C@H](O)CC2[C@H](O)/C=C/C(=O)O1` (some centres not stated), the IC50 was > 80 µM (inactive).

Consider `COc1ccc(C(C(=O)NC2CCCCC2)N(C(=O)CCl)c2ccc(OC)cc2)cc1` (configuration not stated), for which the half-maximal inhibitory concentration (IC50) is 0.57 µM.

Take `Cc1ccc(C(=O)CSc2nnc(COc3ccccc3)o2)cc1`: the IC50 was > 80 µM (inactive).

Regarding `Cc1ccc(-c2nn3c(C)nnc3c3ccccc23)cc1S(=O)(=O)NCCN1CCOCC1`, the IC50 is 31.5 µM (inactive).

In the case of `CCOc1ccc(-c2nc(CSCC(=O)NC3CC3)c(C)o2)cc1`, the IC50 was 0.28 µM.

As for `Oc1[nH]c2ccccc2c1N=Nc1nc(Nc2ccccc2)nc(N2CCOCC2)n1`, the IC50 was 1.36 µM.

In the case of `C=CCn1c(O)c(C(CC)=NC(C)c2ccccc2)c(=O)[nH]c1=O` (configuration not stated), the IC50 was 56.4 µM (inactive).

Turning to `O=S(=O)(c1cnc(Cl)c(Cl)c1)N1CCCc2ccccc21`, the IC50 is 33.8 µM (inactive).

As for `CCOC(=O)Cc1csc(NC(=S)NC(=O)c2ccc(Cl)cc2)n1`, the IC50 is 30.6 µM (inactive).

With `CCN(CC(=O)Nc1c(F)cccc1F)C(=O)C1(c2ccccc2)CC1`, the IC50 is 14.4 µM.

Consider `O=C(Nc1cccc(Oc2ccc3c(c2)C(=O)NC3=O)c1)c1cccs1`, for which the IC50 was > 80 µM (inactive).

Regarding `COc1ccc(C(=O)Nc2nnc(Cc3cccs3)s2)cc1OC`, the IC50 is > 80 µM (inactive).

As for `CCN(CC)C(=O)c1ccc(S(=O)(=O)Cc2ccc(C)cc2)c([N+](=O)[O-])c1`, the IC50 was 3.55 µM.

Take `COc1cc(-c2nc3n(n2)C(c2ccc(F)cc2)C2=C(CCCC2=O)N3)cc(OC)c1OC` (configuration not stated): the IC50 is 65.5 µM (inactive).

Regarding `C/C=C(/C)C(=O)OC1Cc2c(ccc3ccc(=O)oc23)OC1(C)C` (configuration not stated), the IC50 is > 80 µM (inactive).

Consider `CN(C)C(=O)CCc1nc(-c2ccc(C(C)(C)C)cc2)no1`, for which the IC50 was 18.8 µM.

Turning to `COc1ccc(/C=C2/SC(=S)N(CCCC(=O)Nc3cccc(O)c3)C2=O)cc1`, the IC50 was 3.88 µM.

As for `Cc1cc(C)cc(N2C(=O)NC(=O)/C(=C\c3cccn3-c3ccccc3)C2=O)c1`, the IC50 is 36.4 µM (inactive).

For `Cn1nc(-c2ccc(N3CCOCC3)c(NS(=O)(=O)c3ccccc3)c2)c2ccccc2c1=O`, the IC50 is > 80 µM (inactive).

As to `COc1ccc(-c2nsc(SCC(=O)Nc3cc(C)on3)n2)cc1`, the IC50 is 46.3 µM (inactive).

On to `COc1cc(-c2nc3ccc(N4CCN(C)CC4)cc3[nH]2)cc(OC)c1OC`, for which the IC50 is > 80 µM (inactive).

As to `O=C(CCCN1C(=O)S/C(=C\C=C\c2ccccc2)C1=O)Nc1ccc(O)cc1`, the 50% inhibitory concentration (IC50) was 2.99 µM.

As for `Cn1c(=O)cc(OCCCC(=O)NCc2ccccn2)c2ccccc21`, the IC50 was > 80 µM (inactive).

Consider `Cc1ccc(-c2nsc3c(N4CCC(C(N)=O)CC4)ncnc23)cc1`, for which the half-inhibitory concentration (IC50) was 6.33 µM.

As to `COc1ccc(-n2c(-c3ccc(Cl)cc3)c[n+]3c2CCc2ccccc2-3)cc1`, the IC50 was > 80 µM (inactive).

Turning to `O=C(Nc1nc2nc(-c3ccccc3)cc(-c3ccccc3)n2n1)c1ccco1`, the IC50 is 48.3 µM (inactive).

Regarding `Cc1nc2cc(-c3cccc(F)c3)nn2c(C)c1CCC(=O)N1CCC2(CC1)OCCO2`, the IC50 is 49.5 µM (inactive).

`CCOc1ccc(NC(=O)CCCc2cc(-c3ccc(OCC)cc3)on2)cc1`: the 50% inhibitory concentration (IC50) was 1.95 µM.

As for `COc1ccc(/C=C2/SC(=S)N(CCCC(=O)Nc3ccc(O)cc3)C2=O)cc1OC`, the IC50 was > 80 µM (inactive).

As for `C/C(=N\Nc1nc(Nc2ccccc2)nc(N2CCOCC2)n1)c1cccs1`, the IC50 is 8.71 µM.

`COc1ccc(/C=C2\SC(=S)N(CCC(=O)Nc3ccc(O)cc3)C2=O)cc1`: the IC50 was > 80 µM (inactive).

For the molecule `Cc1ccc(Sc2cc(NCCCO)c([N+](=O)[O-])c3nonc23)cc1`, the IC50 was > 80 µM (inactive).

`CC(=O)C1=NN(c2ccccc2)C(c2cccs2)N1c1ccc(N(C)C)cc1` (configuration not stated): the IC50 was 31.7 µM (inactive).

As to `Cc1ccc(C2(c3ccc(C)cc3)CC2C(=O)Nc2ccc([N+](=O)[O-])cc2O)cc1` (configuration not stated), the IC50 was 73.4 µM (inactive).

Take `CCc1sc(C(=O)Nc2cccc(-n3cnnn3)c2)cc1C`: the IC50 was > 80 µM (inactive).

For `O=C(CCCc1nc(-c2ccccc2Cl)no1)NC1CCCC1`, the IC50 is 1.25 µM.

As to `CC1=CC(C)(C)Nc2ccc(OC(=O)C(C)N3C(=O)c4ccccc4C3=O)cc21` (configuration not stated), the half-maximal inhibitory concentration (IC50) is 6.85 µM.

For the molecule `CC(C)c1ccc(/C=C2\SC(=S)N(CCC(=O)NCCCn3ccnc3)C2=O)cc1`, the IC50 is 16.6 µM.

With `COc1cccc(/C=C2/SC(=S)N(CCCC(=O)Nc3ccc(O)cc3)C2=O)c1`, the IC50 was 1.49 µM.

Regarding `CC(C)(C)c1ccc(-n2ncc3c2CCCC3NC(=O)C2(C(N)=O)CC2)cc1` (configuration not stated), the IC50 is > 80 µM (inactive).

For the molecule `CCCc1nc2c(C)cc(-c3nc4ccccc4n3C)cc2n1Cc1ccc(-c2ccccc2C(=O)O)cc1`, the IC50 is 72.5 µM (inactive).

For `CCN1C(=O)c2cccc3c(S(=O)(=O)Nc4ccccc4)ccc1c23`, the IC50 was 40.4 µM (inactive).

Take `COc1ccc(/C=C/c2ccccc2)cc1[C@H]1[C@H]2C=CC[C@@H](C)[C@@H]2C(=O)N1Cc1ccccc1`: the IC50 is > 80 µM (inactive).

Turning to `CCOc1ccc(S(=O)(=O)NCc2ccncc2)cc1NC(=O)c1ccccc1`, the IC50 is > 80 µM (inactive).

Turning to `CCN(CC(=O)Nc1c(F)cccc1F)C(=O)c1cc(S(=O)(=O)N(CC)CC)ccc1N1CCCCC1`, the concentration for half-maximal inhibition (IC50) was 4.04 µM.

With `Cc1ccc(-c2c[n+]3c(n2-c2ccccc2)SCC3)cc1`, the IC50 is > 80 µM (inactive).

As for `CCN(CC)c1ccc(/C=C2/C(=O)ON=C2C)cc1`, the IC50 is 21.2 µM (inactive).

In the case of `CCOc1ccc(-c2nnc(SCC(=O)NC3CC3)o2)cc1`, the IC50 is 62 µM (inactive).

With `CCc1ccc(-c2nc(CSCC(=O)NC3CC3)c(C)o2)cc1`, the IC50 was 0.41 µM.

With `O=C(NNC(=O)C12CC3CC(CC(C3)C1)C2)c1cccc(O)c1`, the IC50 was 16.5 µM.

As to `COc1ccccc1/C=C1\SC(=S)N(CCC(=O)NC2=NCCS2)C1=O`, the IC50 was > 80 µM (inactive).

For `CC1(C)CC2CC(C)(CN2S(=O)(=O)c2ccc(C(=O)Nc3ccc(S(=O)(=O)N4CCOCC4)cc3)cc2)C1` (configuration not stated), the IC50 was > 80 µM (inactive).

In the case of `CC1=CC(C)(C)Nc2ccc(OC(=O)CN3C(=O)CCC3=O)cc21`, the concentration for half-maximal inhibition (IC50) was 8.56 µM.

`CCOc1ccc(/C=C2\SC(=S)N(CCC(=O)Nc3cccc(C(=O)O)c3)C2=O)cc1`: the IC50 was 8.87 µM.

Consider `COc1ccc(-c2ccc(OC)c([C@H]3[C@H]4C=CC[C@@H](C)[C@@H]4C(=O)N3Cc3ccccc3)c2)cc1`, for which the IC50 is > 80 µM (inactive).

For the molecule `Cc1ccccc1-n1c(SCc2c(C)noc2C)nnc1-c1c[nH]c2ccccc12`, the IC50 is 76.1 µM (inactive).

As for `COc1ccc(-c2ccoc2)cc1[C@H]1[C@H]2C=CC[C@@H](C)[C@@H]2C(=O)N1Cc1ccccc1`, the IC50 was > 80 µM (inactive).

Take `CCC(CC)C(=O)Nc1ccc(Sc2ccc([N+](=O)[O-])cc2)cc1`: the IC50 is 32.2 µM (inactive).

`N=c1c2c(n(Cc3ccc(Cl)cc3Cl)c3c1CCC3)CCCC2`: the IC50 was 40.3 µM (inactive).

As for `CCCS(=O)(=O)Nc1cccc(-c2ccc3nnc(C)n3n2)c1`, the IC50 is > 80 µM (inactive).

Take `CCNc1nc(C)c2cc(Br)c(=O)n(CC)c2n1`: the half-maximal inhibitory concentration (IC50) was 1.48 µM.

Take `O=C1CCCc2c1[nH]c1ccc(CN3CCCCC3)cc21`: the IC50 is > 80 µM (inactive).

For the molecule `CCn1c(=O)cc(OCC(=O)Nc2ccc(OC)c(OC)c2)c2ccccc21`, the IC50 was > 80 µM (inactive).

Turning to `COc1ccc2nc(Sc3c([N+](=O)[O-])nc(C)n3Cc3ccccc3)[nH]c2c1`, the 50% inhibitory concentration (IC50) was 18.2 µM.

In the case of `Cc1ccc(-c2cc(C(=O)NCCCN3CCOCC3)no2)cc1`, the IC50 was 11.5 µM.

As to `CC1CCN(C(=O)CCCOc2cc(=O)n(C)c3ccccc23)CC1`, the IC50 is > 80 µM (inactive).

Turning to `Cc1cc(C)cc(NC(=O)c2nnn(Cc3cc(C)ccc3C)c2N)c1`, the IC50 was > 80 µM (inactive).

These data come from PubChem BioAssay AID489023 (Sanford-Burnham Center for Chemical Genomics, 2010).
